Ends that are not written are not given here.
Assays:
Format in all cases: cell-based
[1] = system: Lactobacillus gasseri (FERM BP-11331); assay: Growth-promoting effect on Lactobacillus gasseri in modified MRS medium (particle count)
Text: Nitrogen sources in MRS medium were reduced to find a medium composition that achieves a total bacterial count of about 1.0×10^8 cell/mL to 1.0×10^9 cell/mL after culturing of each of the six bacterial strains Lactobacillus gasseri (FERNM BP-11331), Lactobacillus acidophilus (FERM BP-4981), Lactobacillus amylovorus (FERM BP-11255), Lactobacillus curvatus (NITE P-02033), Lactobacillus plantarum, and Lactobacillus brevis. This composition, named “modified MRS medium”, was used for the evaluation. Here, for the composition of the MRS medium, a composition described in a medium catalog provided by BD (Becton, Dickinson and Company) was used as a reference. The compositions of the MRS medium and the modified MRS medium are as follows. By chemical synthesis, 28 kinds of candidate peptides having the sequences shown below were provided. Each candidate peptide was added to the modified MRS medium at 0.25 mg/mL to provide a medium to be evaluated. The lactic acid bacterium Lactobacillus gasseri was inoculated at 1.0×10^7 cells/mL to the provided medium to be evaluated, and culture was carried out at a temperature of 37° C. for a culture period of 18 hours. The resulting culture was collected, and subjected to measurement of the particle concentration (particles/mL) as a characteristic value that can be used as an index of the bacterial cell growth, using a particle count analyzer (CDA-1000, Sysmex). The rate of increase (%) was calculated relative to a control value obtained using a medium to which no peptide was added, which was taken as 100%. Using the dipeptide LF (Leu-Phe) and an equimolar mixture of leucine (L) and phenylalanine (F), culture was carried out in the same manner as in Example 1, and the growth-promoting effects of the dipeptide and the amino acid mixture on the lactic acid bacterium were evaluated. Using a dipeptide (LF) as the peptide, the growth-promoting effect on a lactic acid bacterium was evaluated in the same manner except that the concentration of the dipeptide added was 0.1 mg/mL, 0.25 mg/mL, or 1.0 mg/mL.

[2] = system: Lactobacillus curvatus (NITE P-02033); assay: Growth-promoting effect on Lactobacillus curvatus in modified MRS medium (particle count); details: Example 4, peptide 0.25 mg/mL, 37° C., 18 hours; for Rate of increase: control = 100%
Text: Nitrogen sources in MRS medium were reduced to find a medium composition that achieves a total bacterial count of about 1.0×10^8 cell/mL to 1.0×10^9 cell/mL after culturing of each of the six bacterial strains Lactobacillus gasseri (FERNM BP-11331), Lactobacillus acidophilus (FERM BP-4981), Lactobacillus amylovorus (FERM BP-11255), Lactobacillus curvatus (NITE P-02033), Lactobacillus plantarum, and Lactobacillus brevis. This composition, named “modified MRS medium”, was used for the evaluation. Here, for the composition of the MRS medium, a composition described in a medium catalog provided by BD (Becton, Dickinson and Company) was used as a reference. The compositions of the MRS medium and the modified MRS medium are as follows. By chemical synthesis, 28 kinds of candidate peptides having the sequences shown below were provided. Each candidate peptide was added to the modified MRS medium at 0.25 mg/mL to provide a medium to be evaluated. The lactic acid bacterium Lactobacillus gasseri was inoculated at 1.0×10^7 cells/mL to the provided medium to be evaluated, and culture was carried out at a temperature of 37° C. for a culture period of 18 hours. The resulting culture was collected, and subjected to measurement of the particle concentration (particles/mL) as a characteristic value that can be used as an index of the bacterial cell growth, using a particle count analyzer (CDA-1000, Sysmex). The rate of increase (%) was calculated relative to a control value obtained using a medium to which no peptide was added, which was taken as 100%. For eight kinds of candidate peptides having the sequences shown below, the growth-promoting effect on a lactic acid bacterium was evaluated in the same manner as in Example 1 except that Lactobacillus curvatus was used instead of Lactobacillus gasseri.

Lactobacillus brevis = assay: Growth-promoting effect on Lactobacillus brevis in modified MRS medium (particle count); details: Example 6, peptide 0.25 mg/mL, 37° C., 18 hours; for Rate of increase: control = 100%
Text: Nitrogen sources in MRS medium were reduced to find a medium composition that achieves a total bacterial count of about 1.0×10^8 cell/mL to 1.0×10^9 cell/mL after culturing of each of the six bacterial strains Lactobacillus gasseri (FERNM BP-11331), Lactobacillus acidophilus (FERM BP-4981), Lactobacillus amylovorus (FERM BP-11255), Lactobacillus curvatus (NITE P-02033), Lactobacillus plantarum, and Lactobacillus brevis. This composition, named “modified MRS medium”, was used for the evaluation. Here, for the composition of the MRS medium, a composition described in a medium catalog provided by BD (Becton, Dickinson and Company) was used as a reference. The compositions of the MRS medium and the modified MRS medium are as follows. By chemical synthesis, 28 kinds of candidate peptides having the sequences shown below were provided. Each candidate peptide was added to the modified MRS medium at 0.25 mg/mL to provide a medium to be evaluated. The lactic acid bacterium Lactobacillus gasseri was inoculated at 1.0×10^7 cells/mL to the provided medium to be evaluated, and culture was carried out at a temperature of 37° C. for a culture period of 18 hours. The resulting culture was collected, and subjected to measurement of the particle concentration (particles/mL) as a characteristic value that can be used as an index of the bacterial cell growth, using a particle count analyzer (CDA-1000, Sysmex). The rate of increase (%) was calculated relative to a control value obtained using a medium to which no peptide was added, which was taken as 100%. For eight kinds of candidate peptides having the sequences shown below, the growth-promoting effect on a lactic acid bacterium was evaluated in the same manner as in Example 1 except that Lactobacillus brevis was used instead of Lactobacillus gasseri.

[3] = Example 1, peptide 0.25 mg/mL, 37° C., 18 hours, inoculum 1.0×10^7 cells/mL
[4] = Example 1, peptide 0.25 mg/mL, 37° C., 18 hours, control without peptide = 100%

| Substance | Particle concentration [1, 3] | Rate of increase [1, 4] | Particle concentration [2] | Rate of increase [2] | Particle concentration (Lactobacillus brevis) | Rate of increase (Lactobacillus brevis) | Particle concentration ([1]; Comparative Example 1, dipeptide vs equimolar amino acid mixture, cultured as in Example 1) | Rate of increase ([1]; Comparative Example 1, dipeptide vs equimolar amino acid mixture, control = 100%) | Particle concentration ([1]; Example 7, addition concentration 0.1 mg/mL) | Rate of increase ([1]; Example 7, addition concentration 0.1 mg/mL, control = 100%) | Particle concentration ([1]; Example 7, addition concentration 0.25 mg/mL) | Rate of increase ([1]; Example 7, addition concentration 0.25 mg/mL, control = 100%) | Particle concentration ([1]; Example 7, addition concentration 1.0 mg/mL) | Rate of increase ([1]; Example 7, addition concentration 1.0 mg/mL, control = 100%) |
| --- | --- | --- | --- | --- | --- | --- | --- | --- | --- | --- | --- | --- | --- | --- |
| AGPQTF | 2.5e+08 mL⁻¹ | 126% | 1.58e+08 mL⁻¹ | 111% | 1.16e+09 mL⁻¹ | 106% | – | – | – | – | – | – | – | – |
| APKPDYPIA (listed as Saccharomyces cerevisiae) [Ala-Pro-Lys-Pro-Asp-Tyr-Pro-Ile-Ala] | 2.37e+08 mL⁻¹ | 137% | 1.6e+08 mL⁻¹ | 112% | 1.12e+09 mL⁻¹ | 103% | – | – | – | – | – | – | – | – |
| Leu-Phe [LF] | 2.49e+08 mL⁻¹ | 118% | 2.22e+08 mL⁻¹ | 124% | 1.24e+09 mL⁻¹ | 114% | 3.88e+08 mL⁻¹ | 121% | 2.38e+08 mL⁻¹ | 112% | 2.49e+08 mL⁻¹ | 118% | 3.17e+08 mL⁻¹ | 150% |
| Leu-Pro-Trp-Gly (LPWG; listed as Saccharomyces cerevisiae) | 2.45e+08 mL⁻¹ | 142% | 1.97e+08 mL⁻¹ | 109% | 1.18e+09 mL⁻¹ | 108% | – | – | – | – | – | – | – | – |
| Pro-Ser-Val-Phe (PSVF; listed as Saccharomyces cerevisiae) | 2.32e+08 mL⁻¹ | 134% | 1.68e+08 mL⁻¹ | 119% | 1.16e+09 mL⁻¹ | 106% | – | – | – | – | – | – | – | – |
| Pro-Val-Phe [PVF] | 2.51e+08 mL⁻¹ | 137% | 1.71e+08 mL⁻¹ | 95% | 1.17e+09 mL⁻¹ | 107% | – | – | – | – | – | – | – | – |
| Pro-Val-Tyr [PVY] | 2.27e+08 mL⁻¹ | 121% | 1.64e+08 mL⁻¹ | 116% | 1.17e+09 mL⁻¹ | 107% | – | – | – | – | – | – | – | – |
| Val-Pro-Ala-Phe (VPAF; listed as Saccharomyces cerevisiae) | 2.62e+08 mL⁻¹ | 152% | 2.15e+08 mL⁻¹ | 117% | 1.16e+09 mL⁻¹ | 106% | – | – | – | – | – | – | – | – |

— US20230151057A1, “LACTIC ACID BACTERIA GROWTH PROMOTER” (Asahi Group Holdings, Ltd., priority 2020, published 2023)
